Target: T1, recombinant HIV reverse transcriptase (HIV RTR) (Human immunodeficiency virus type 1 group M subtype B, UniProt P04585)
T1 construct: recombinant HIV reverse transcriptase (HIV RTR)
Assay: Reverse Transcriptase Assay
Format: biochemical
Details: incorporation of [³H] dGMP into acid-precipitable cDNA, dGTP and poly r(C)·oligo d(G)12-18 at Km, 37°C for 45 minutes; read-out: IC₅₀
Procedure: The assay measures the incorporation of tritiated deoxyguanosine monophosphate by recombinant HIV reverse transcriptase (HIV RTR) (or other RT) into acid-precipitable cDNA at the Km values of dGTP and poly r(C)·oligo d(G)₁₂₋₁₈.
Thirty uL of a reaction mixture containing equal volumes of: 500 mM Tris·HCl (pH 8.2), 300 mM MgCl₂, 1200 mM KCl, 10 mM DTT, 400 µg/mL poly r(c)·oligo d(G) [prepared by dissolving 1.5 mg (25 U) poly r(C)·oligo d(G) in 1.5 ml sterile distilled H₂O and diluting to 400 µg/ml], 0.1 µCi/µl [³H] dGTP, 160 µM dGTP, was added to 10 µl sterile distilled H₂O, 2.5 µl of potential inhibitor and 10 µL of 5 nM purified HIV RTR in tubes. The mixture was incubated at 37°C for 45 minutes.
After incubation is complete, the tubes were cooled in ice for 5 minutes. Ice-cold 13% TCA containing 10 mM NaPPi (200 µl) are added and the mixture incubated on ice for 30 minutes. The precipitated cDNA is removed by filtration using presoaked glass filters [TCA, NaPPi]. The precipitate is then washed with 1N HCl, 10 mM NaPPi.
The filter discs are then counted in a scintillation counter.
Under these conditions [dGTP] and poly r(C)·oligo d(G)₁₂₋₁₈ each are approximately equal to the appropriate Km value. […] Calculated IC₅₀ values for the lead compounds of this invention were approximately 94nM and (more than or equal to) 300 µM for L-697,914 and L-697,913, respectively. […]

Cc1[nH]c(=O)c(NCc2nc3ccccc3o2)cc1C(C)O [L-697,913, 3-[(benzoxazol-2-yl)methylamino]-5-(1-hydroxyethyl)-6-methylpyridin-2(1H)-one]
IC50: ≥ 300000 nM

CCc1cc(NCc2nc3ccccc3o2)c(=O)[nH]c1CO [L-697,914, 3-[(benzoxazol-2-yl)methylamino]-5-ethyl-6-hydroxymethylpyridin-2(1H)-one]
IC50: ~94 nM
